Key:
IKKε = target: T1, IKKε (Homo sapiens, UniProt Q14164); assay: In-vitro IKKε kinase assay ([γ33]ATP filter-plate); assay type: biochemical; conditions: text bins; read-out: IC50 for inhibition of the kinase activity of IKKε
T1 construct: His-tag; made in house; host or cells: Sf9 insect cells
T1 sequence (Q14164 1-716): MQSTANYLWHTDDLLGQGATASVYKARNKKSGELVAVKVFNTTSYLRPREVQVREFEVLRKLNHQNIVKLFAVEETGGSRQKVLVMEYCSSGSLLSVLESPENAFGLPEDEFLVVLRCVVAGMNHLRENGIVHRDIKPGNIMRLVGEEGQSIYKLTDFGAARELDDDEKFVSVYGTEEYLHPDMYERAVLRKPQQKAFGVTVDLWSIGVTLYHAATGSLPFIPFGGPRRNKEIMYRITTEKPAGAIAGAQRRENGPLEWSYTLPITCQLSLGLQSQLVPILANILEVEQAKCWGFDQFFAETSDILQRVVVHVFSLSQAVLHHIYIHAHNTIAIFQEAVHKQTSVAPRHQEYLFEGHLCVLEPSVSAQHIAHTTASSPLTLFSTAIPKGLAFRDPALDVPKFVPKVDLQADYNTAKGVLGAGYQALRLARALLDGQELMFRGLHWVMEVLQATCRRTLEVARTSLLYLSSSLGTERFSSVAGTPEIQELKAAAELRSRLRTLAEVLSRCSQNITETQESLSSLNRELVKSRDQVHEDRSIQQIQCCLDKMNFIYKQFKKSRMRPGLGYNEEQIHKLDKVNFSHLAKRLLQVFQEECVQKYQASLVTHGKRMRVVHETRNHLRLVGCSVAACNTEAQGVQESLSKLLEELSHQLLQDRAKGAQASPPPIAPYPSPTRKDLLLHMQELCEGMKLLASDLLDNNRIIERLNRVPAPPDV
How it was run: (§1)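 His-tagged Sf9-expressed kinases at 0.1 or 0.02 μg/ml (TBK1) and 0.1 or 0.015 μg/ml (IKKε) for normal and sensitized formats, with myelin basic protein or casein substrate. ATP was at 2×Km (60 μM TBK1, 32 μM IKKε) plus 0.3 μCi [γ33]ATP. Reactions ran 30-45 min, were captured on P-81 filters, and counts were normalized to DMSO.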

TBK1 = target: T2, TBK1 (Homo sapiens, UniProt Q9UHD2); assay: In-vitro TBK1 kinase assay ([γ33]ATP filter-plate); assay type: biochemical; conditions: text bins; read-out: IC50 for inhibition of the kinase activity of TBK1
T2 construct: His-tag; made in house; host or cells: Sf9 insect cells
T2 sequence (Q9UHD2 1-729): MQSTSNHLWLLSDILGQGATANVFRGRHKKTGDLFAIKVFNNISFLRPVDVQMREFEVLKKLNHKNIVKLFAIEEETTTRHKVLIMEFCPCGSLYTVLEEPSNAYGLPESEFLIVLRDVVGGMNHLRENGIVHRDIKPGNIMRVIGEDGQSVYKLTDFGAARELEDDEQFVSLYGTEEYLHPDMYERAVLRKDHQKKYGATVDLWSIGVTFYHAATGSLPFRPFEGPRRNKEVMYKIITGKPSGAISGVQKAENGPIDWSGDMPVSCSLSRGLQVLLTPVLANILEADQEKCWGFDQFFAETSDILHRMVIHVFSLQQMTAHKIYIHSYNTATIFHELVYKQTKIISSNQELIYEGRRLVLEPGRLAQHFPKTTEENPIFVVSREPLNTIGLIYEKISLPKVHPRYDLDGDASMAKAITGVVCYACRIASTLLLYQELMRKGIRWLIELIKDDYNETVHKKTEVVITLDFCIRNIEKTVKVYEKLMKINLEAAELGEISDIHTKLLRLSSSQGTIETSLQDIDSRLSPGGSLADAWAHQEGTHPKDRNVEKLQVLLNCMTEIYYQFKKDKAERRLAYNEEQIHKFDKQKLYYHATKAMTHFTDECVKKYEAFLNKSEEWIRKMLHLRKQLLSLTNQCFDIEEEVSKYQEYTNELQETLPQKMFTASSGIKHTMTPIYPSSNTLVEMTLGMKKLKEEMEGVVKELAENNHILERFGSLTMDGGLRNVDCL
How it was run: as §1

IC50 (IKKε)	IC50 (TBK1)	SMILES
< 5 nM	< 10 nM	N#Cc1cc(-c2ccnc(Nc3ccc(N4CCOCC4)c(Cl)c3)n2)ccc1OC1CCOCC1 [compound 374, 5-(2-{[3-chloro-4-(morpholin-4-yl)phenyl]amino}pyrimidin-4-yl)-2-(tetrahydro-2H-pyran-4-yloxy)benzonitrile]
< 5 nM	< 10 nM	COc1ccc(-c2ccnc(Nc3cc(OC)c(OC)c(OC)c3)n2)cc1C#N [compound 341, 2-methoxy-5-{2-[(3,4,5-trimethoxyphenyl)amino]pyrimidin-4-yl}benzonitrile]
< 5 nM	< 10 nM	CN(C)C(=O)CN(C)c1ccc(Nc2nccc(-c3ccc(OC4CCOCC4)c(C#N)c3)n2)cc1 [Example 82, N~2~-[4-({4-[3-cyano-4-(tetrahydro-2H-pyran-4-yloxy)phenyl]pyrimidin-2-yl}amino)phenyl]-N,N,N~2~- trimethylglycinamide]
5 to 50 nM	< 10 nM	COc1ccc(-c2ccnc(Nc3ccc(N4CCN(C(C)C)C(=O)C4)c(OC)c3)n2)cc1C#N [Example 38, 2-Methoxy-5-[2-({3-methoxy-4-[3-oxo-4-(propan-2-yl)piperazin-1-yl]phenyl}amino)pyrimidin-4-yl]benzonitrile]
5 to 50 nM	10 to 100 nM	COc1cc(Nc2nccc(-c3ccc(OC4CCN(C(=O)[C@H](C)O)CC4)c(C#N)c3)n2)ccc1OCCOCCN [Example 105, 5-[2-({4-[2-(2-aminoethoxy)ethoxy]-3-methoxyphenyl}amino)pyrimidin-4-yl]-2-({1-[(2S)-2-hydroxypropanoyl]piperidin-4-yl}oxy)benzonitrile]
5 to 50 nM	10 to 100 nM	COc1cc(N)cc(Nc2nccc(-c3ccc(OC)c(C#N)c3)n2)c1 [compound 358, 5-{2-[(3-Amino-5-methoxyphenyl)amino]pyrimidin-4-yl}-2-methoxybenzonitrile]
5 to 50 nM	< 10 nM	CC(C)C(=O)Nc1ccc(-c2ccnc(Nc3cccc(CCO)c3)n2)cc1C#N [compound 450, N-[2-cyano-4-(2-{[3-(2-hydroxyethyl)phenyl]amino}pyrimidin-4-yl)phenyl]-2-methylpropanamide]
< 5 nM	< 10 nM	N#Cc1cc(-c2ccnc(Nc3ccc(CS(=O)(=O)NCCO)cc3)n2)ccc1OCC1CC1 [compound 637, 1-[4-({4-[3-Cyano-4-(cyclopropylmethoxy)phenyl]pyrimidin-2-yl}amino)phenyl]-N-(2-hydroxyethyl) methanesulfonamide]
5 to 50 nM	< 10 nM	CC(C)CC(=O)Nc1ccc(-c2ccnc(Nc3ccc(N4CCOCC4)cc3)n2)cc1C#N [Example 1, N-[2-cyano-4-(2-{[4-(morpholin-4-yl)phenyl]amino}pyrimidin-4-yl)phenyl]-3-methylbutanamide]
5 to 50 nM	10 to 100 nM	COc1ccc(-c2ccnc(Nc3ccc(OC)c(OC)c3)n2)cc1C#N [Example 48, 5-{2-[(3,4-Dimethoxyphenyl)amino]pyrimidin-4-yl}-2-methoxybenzonitrile]
< 5 nM	< 10 nM	N#Cc1cc(-c2ccnc(Nc3ccc(N4CCOCC4)cc3)n2)ccc1OCCCNC(=O)CO [Example 181, N-{3-[2-cyano-4-(2-{[4-(morpholin-4-yl)phenyl]amino}pyrimidin-4-yl)phenoxy]propyl}-2-hydroxyacetamide]
5 to 50 nM	10 to 100 nM	COc1ccc(-c2ccnc(Nc3ccc(OC)c(OCCN4CCOCC4)c3)n2)cc1C#N [compound 368, 2-Methoxy-5-[2-({4-methoxy-3-[2-(morpholin-4-yl)ethoxy]phenyl}amino)pyrimidin-4-yl]benzonitrile]
< 5 nM	< 10 nM	COc1cc(Nc2nccc(-c3ccc(OC4CCOCC4)c(C#N)c3)n2)ccc1C(=O)NCc1cccnc1 [Example 275, 4-({4-[3-cyano-4-(tetrahydro-2H-pyran-4-yloxy)phenyl]pyrimidin-2-yl}amino)-2-methoxy-N-(pyridin-3-ylmethyl)benzamide]
5 to 50 nM	10 to 100 nM	COc1cc(NC(=O)NC2CCCC2)cc(Nc2nccc(-c3ccc(OC)c(C#N)c3)n2)c1 [compound 332, 1-(3-{[4-(3-Cyano-4-methoxyphenyl)pyrimidin-2-yl]amino}-5-methoxyphenyl)-3-cyclopentylurea]
5 to 50 nM	10 to 100 nM	CC(=O)Nc1ccc(-c2ccnc(Nc3ccc(N4CCOCC4)cc3)n2)cc1C#N [Example 117, N-[2-Cyano-4-(2-{[4-(morpholin-4-yl)phenyl]amino}pyrimidin-4-yl)phenyl]acetamide]
5 to 50 nM	10 to 100 nM	COCC(=O)Nc1cc(Nc2nccc(-c3ccc(OC)c(C#N)c3)n2)cc(OC)c1 [Example 278, N-(3-{[4-(3-Cyano-4-methoxyphenyl)pyrimidin-2-yl]amino}-5-methoxyphenyl)-2-methoxyacetamide]
5 to 50 nM	< 10 nM	CC(C)C(=O)Nc1ccc(-c2ccnc(Nc3ccc(N4CCN(CCO)CC4)cc3)n2)cc1C#N [compound 427, N-{2-cyano-4-[2-({4-[4-(2-hydroxyethyl)piperazin-1-yl]phenyl}amino)pyrimidin-4-yl]phenyl}-2-methylpropanamide]
5 to 50 nM	10 to 100 nM	COc1ccc(Nc2nccc(-c3cccc(C#N)c3)n2)cc1Cl [compound 318, 3-{2-[(3-Chloro-4-methoxyphenyl)amino]pyrimidin-4-yl}benzonitrile]
< 5 nM	< 10 nM	COc1cc(Nc2nccc(-c3ccc(OC4CCN(C(C)=O)CC4)c(C#N)c3)n2)ccc1N1CCNC(=O)C1 [Example 134, 2-[(1-Acetylpiperidin-4-yl)oxy]-5-(2-{[3-methoxy-4-(3-oxopiperazin-1-yl)phenyl]amino}pyrimidin-4-yl)benzonitrile]
5 to 50 nM	10 to 100 nM	COc1cc(Nc2nccc(-c3ccc(OC4CCNCC4)c(C#N)c3)n2)ccc1N1CCOCC1 [Example 186, 5-(2-{[3-methoxy-4-(morpholin-4-yl)phenyl]amino}pyrimidin-4-yl)-2-(piperidin-4-yloxy)benzonitrile]
5 to 50 nM	< 10 nM	N#Cc1cc(-c2ccnc(Nc3ccc(N4CCOCC4)cc3)n2)ccc1N [Example 217, 2-Amino-5-(2-{[4-(morpholin-4-yl)phenyl]amino}pyrimidin-4-yl)benzonitrile]
5 to 50 nM	10 to 100 nM	COc1ccc(-c2ccnc(Nc3ccc(OCCN4CCOCC4)c(OC)c3)n2)cc1C#N [Example 273, 2-Methoxy-5-[2-({3-methoxy-4-[2-(morpholin-4-yl)ethoxy]phenyl}amino)pyrimidin-4-yl]benzonitrile]
5 to 50 nM	< 10 nM	CN1CCN(c2ccc(Nc3nccc(-c4ccc(OC5CCN(C(=O)CO)C5)c(C#N)c4)n3)cc2)CC1 (centres unmarked) [Example 254, 2-{[1-(hydroxyacetyl)pyrrolidin-3-yl]oxy}-5-(2-{[4-(4-methylpiperazin-1-yl)phenyl]amino}pyrimidin-4-yl)benzonitrile]
< 5 nM	< 10 nM	N#Cc1cc(-c2ccnc(Nc3ccc(N4CCOCC4)cc3)n2)ccc1OCCO [Example 239, 2-(2-Hydroxyethoxy)-5-(2-{[4-(morpholin-4-yl)phenyl]amino}pyrimidin-4-yl)benzonitrile]
5 to 50 nM	10 to 100 nM	CCN1CCN(c2ccc(-c3ccnc(Nc4ccc(N5CCOCC5)cc4)n3)cc2C#N)CC1 [Example 123, 2-(4-Ethylpiperazin-1-yl)-5-(2-{[4-(morpholin-4-yl)phenyl]amino}pyrimidin-4-yl)benzonitrile]
